The record followed here is patent US20240026554A1, “ANTIOXIDANT CULTURE METHOD AND ANTIOXIDANT AUXILIARY EQUIPMENT” (National Pingtung University of Science and Technology, priority 2022, published 2024).

In data set [1] the test system is hamster kidney cells (BHK21). The settings on record: bioreactor with hydrogen vs without hydrogen, hydrogen supplied from day 2, culture to day 8.
Protocol: The hamster kidney cells were incubated at 37° C. in an incubator with 5.0% CO2 using MEM culture medium (Invitrogen, Gibco Co. Ltd., New York, USA, with 10% FBS). The hamster kidney cells were incubated in a cell culture flask (175T Flask) for 3 days, and then placed in a roller bottle for expanded culture for 3 days. At the beginning of the experiment, the cells were first transferred to a tidal bioreactor (Bellocell, Taiwan) with a working volume of 500 ml of culture medium for 2 days to adapt to the environment in which the hamster kidney cells could grow to a saturated number of about 3×10^9/bottle. The electrolysis-based hydrogen generator was started on day 2 for antioxidant cell culture to regulate cellular oxidative stress.
The cells were divided into two groups to analyze the antioxidant effect. […] Cell number, hydrogen concentrations, and reactive oxygen species (ROS) tolerance responses were measured daily.
The biological carriers in the bioreactors of the experimental group and the control group were collected daily, 1 ml of Crystal Violet Dye (CVD) cell counting dye was added, and the number of cells was counted and recorded using an inverted microscope.
In data set [2] the test system is BHK-21 cells. The settings on record: H2O2 0, 4, 10, 20 μM; days 4, 5 and 6; hydrogen group vs hydrogen-free group.
Protocol: The cells were divided into two groups to analyze the antioxidant effect. […] Following Example 1, when the antioxidant auxiliary equipment was turned on the second day (day 2), hydrogen gas was supplied at the frequency of turning on the current for 15 minutes per hour, the voltage was 3-5V, the constant current was 0.5 A, and the theoretical hydrogen production was about 466×10^−5 moles per hour. On the third day, the frequency was adjusted to turn on for 15 minutes and turn off for 15 minutes to continuously supply hydrogen gas until the end of the experiment. The voltage was 3˜5V, the constant current was 0.5 A, and the theoretical hydrogen production was about 933×10^−5 moles per hour. The culture medium was replaced on the third day, and the cells were cultured until the eighth day. Cell number, hydrogen concentrations, and reactive oxygen species (ROS) tolerance responses were measured daily.
(§1) By adding H2O2 at concentrations of 0 μM, 4 μM, 10 μM, and 20 μM, the BHK-21 cells (1×10^5/test) in the experimental group and in the control group were induced to undergo oxidation reaction. H2DCFDA was modified by cellular esterases to form a non-fluorescent H2DCF after adding H2DCFDA cell-permeant fluorescence probe.
For data set [3], the system named is BHK21 cells infected with bovine epidemic fever virus. The settings on record: 24 hours after virus infection, hydrogen group vs hydrogen-free group.
Protocol: as §1
(§2) 0.01 MOI bovine epidemic fever virus liquid (virus strain Tn88128 , References: Hsieh, Y -C.; Wang, S. -Y; Lee, Y -F.; Chen, S. -H.; Mak, P. O. T.; Chu, C. -Y. DNA sequence analysis of glycoprotein G gene of bovine ephemeral fever virus and development of a double oil emulsion vaccine against bovine ephemeral fever. J. Vet. Med. Sci. 2006, 68, 543-548) was used for infecting two groups of cells and the virus was cultured until the eighth day (day 8), the voltage was 3-5V, and the current was 0.5 A. The cell number, hydrogen concentration, viral titer and cell senescence molecular marker Cdkn2a (p16) were measured daily.
Two groups of cells infected with virus on part of the carrier sheets in the bioreactor were collected after 24 hours, and H2O2 with concentrations of 0 μM, 4 μM, 10 μM, and 20 μM was added to induce intracellular oxidation reaction, and the ROS fold changes were evaluated by the method of 2.3 in Example 2.
The test system of data set [4] is bovine epidemic fever virus (strain Tn88128). The settings on record: 24 hours after virus infection (the 4th day), 0.01 MOI.
Protocol: as §2
After the virus infection, the virus tier in the virus liquid was measured by the TCID50 detection method after collecting the virus liquid in the bioreactors of the experimental group and the control group every day. The virus liquid was serially diluted 10-fold with MEM to 1/10^10th of original concentration, and then inoculated into a 96-well cell culture plate at 100 μl/well (100 μl of cell fluid was already added to each well, containing 2×10^4 BHK21 cells), the BHK21 cells were cultured in a 5% CO2 incubator at 37° C. for 3 days. After cytopathic effect (CPE) was observed and recorded, TCID50 was calculated using the Reed-Muench method.
Data set [5] concerns BHK21 cells infected with bovine epidemic fever virus. The settings on record: 24 hours after virus infection; experimental group vs control group.
Protocol: (§3) On the second day, the antioxidant auxiliary equipment was started, and hydrogen gas was supplied at the frequency of turning on the current for 15 minutes per hour. On the third day, the frequency of the current was adjusted to the frequency of turning on the current for 15 minutes and turning off the current for 15 minutes. 0.01 MOI bovine epidemic fever virus liquid (virus strain Tn88128 , References: Hsieh, Y -C.; Wang, S. -Y; Lee, Y -F.; Chen, S. -H.; Mak, P. O. T.; Chu, C. -Y. DNA sequence analysis of glycoprotein G gene of bovine ephemeral fever virus and development of a double oil emulsion vaccine against bovine ephemeral fever. J. Vet. Med. Sci. 2006, 68, 543-548) was used for infecting two groups of cells and the virus was cultured until the eighth day (day 8), the voltage was 3-5V, and the current was 0.5 A. The cell number, hydrogen concentration, viral titer and cell senescence molecular marker Cdkn2a (p16) were measured daily.
After virus infection, the cells on the carrier sheet in the bioreactors of the experimental group and the control group were collected every day, 1 ml of CVD was added, and the number of cells was calculated on that day. The formula for calculating the cell death rate is [(total number of cells on the previous day)−(total number of cells on that day)]/(total number of cells on the previous day)*100%.
Data set [6] deals with Cdkn2a (p16). Conditions: after hydrogen supply, on the third day; experimental vs control group.
Protocol: as §3
The expression level of the cellular senescence molecule Cdkn2a (p16) is an indicator of senescent cells. […]

Like-named read-outs stand apart in the source and are kept apart here.

`[HH]` [molecular hydrogen]: the “cell growth pattern / damage to cells” value in data set [1] is recorded as “will not cause damage to cells”. Also, the values for the ROS fold change result in data set [2], in data set [3] (H2O2 10 μM) and in data set [3] (H2O2 20 μM) were “significantly demonstrated reduced ROS fold change”, “significantly reduced the ROS fold change” and “significantly reduced the ROS fold change”, respectively. Moreover, the “virus yield relative to hydrogen-free group” value in data set [4] amounted to 16 times. Further, the “cell consumption rate (cell death rate)” value in data set [5] is recorded as “greater than that of the control group”. Further, the “fold change of gene expression of senescence molecule Cdkn2a (p16)” value in data set [6] is reported as “decreased significantly”.
